The results in this text go back to US7786299B2, “Methods for treating diseases or conditions using dihydropteridinone compounds” (Boehringer Ingelheim Pharma GmbH & Co. KG, priority 2003, dated 2010).

Molecules are shown by their SMILES. Some results are limits rather than exact numbers.

One assay deals with H460-VINC. Briefly: Cytotoxicity on H460-VINC cells (Table 1; method not given). Format: cell-based. The conditions noted are these: H460-VINC of Table 1; unit inferred.
For another assay, the system named is HeLaS3 cells. The assay can be described thus: Measurement of cytotoxicity on cultivated human tumour cells (AlamarBlue). Format: cell-based. The conditions noted are these: HeLa in Table 1; unit inferred. Here is the method:
The activity of the compounds according to the invention was determined in the cytotoxicity test on cultivated human tumour cells and/or in a FACS analysis, for example on HeLaS3 cells.
Measurement of Cytotoxicity on Cultivated Human Tumour Cells
To measure the cytotoxicity on cultivated human tumour cells, cells of the cervical cancer tumour cell line HeLaS3 (obtained from American Type Culture Collection (ATCC)) in Ham's F12 Medium (Life Technologies) and 10% foetal calf serum (Life Technologies) were cultivated and harvested in the logarithmic growth phase. Then the HeLaS3 cells were placed in 96-well plates (Costar) at a density of 1000 cells per well and incubated overnight in an incubator (at 37° C. and 5% CO2), while on each plate 6 wells were filled only with medium (3 wells as a control of the medium, 3 wells for incubation with reduced AlamarBlue). The active substances were added to the cells in various concentrations (dissolved in DMSO; final concentration: 1%) (in each case as a triple measurement). After 72 hours' incubation, 20 μl of AlamarBlue (AccuMed International) were added to each well, and the cells were incubated for a further 7 hours. As a control, 20 μl of reduced Alamar Blue (AlamarBlue reagent which had been autoclaved for 30 min) were added to 3 wells. After 7 h incubation the colour change of the AlamarBlue reagent in the individual wells was determined in a Perkin Elmer fluorescence spectrophotometer (excitation 530 nm, emission 590 nm, slits 15, integrate time 0.1). The amount of AlamarBlue reagent reacted represents the metabolic activity of the cells. The relative cell activity was calculated as a percentage of the control (HeLa S3 cells without inhibitor) and the active substance concentration which inhibits the cell activity by 50% (IC^50) was obtained. The values were calculated from the average of three individual measurements, correcting for the control value (medium control).
(Alamar Blue is a resazurin reagent that responds to reducing activity.)

On to `COc1cc(C(=O)NCCN2CCOCC2)ccc1Nc1ncc2c(n1)N(C1CCCC1)C(C)C(=O)N2C` (stereo not drawn) [Example 65], for which the IC50 amounted to 216 nM with H460-VINC and 52 nM with HeLaS3 cells.
Turning to `COc1cc(C(=O)NCCCN2CCOCC2)ccc1Nc1ncc2c(n1)N(C1CCCC1)C(C)C(=O)N2C` (stereo not drawn) [Example 63], the IC50 with H460-VINC was 206 nM; with HeLaS3 cells, 81 nM.
On to `COc1cc(C(=O)NC(C)(C)CN2CCCC2)ccc1Nc1ncc2c(n1)N(C1CCCC1)C(C)C(=O)N2C` (stereo not drawn) [Example 49], for which the figures for the IC50 in the assay on H460-VINC and in the assay on HeLaS3 cells were 529 nM and 59 nM, respectively.
On to `COc1cc(C(=O)NCCN(C)C)ccc1Nc1ncc2c(n1)N(C1CCCC1)C(C)C(=O)N2C` (stereo not drawn) [Example 67], for which the IC50 in the assay with H460-VINC came to 566 nM; with HeLaS3 cells it was 52 nM.
For `COc1cc(C(=O)NC2CC(C)(C)N(C)C(C)(C)C2)ccc1Nc1ncc2c(n1)N(C1CCCC1)[C@H](C)C(=O)N2C` [Example 30], the IC50 is 574 nM with H460-VINC and 12 nM with HeLaS3 cells.
On the same counts, the results for `CCC1C(=O)N(C)c2cnc(Nc3ccc(C(=O)NC4CCC(N5CCOCC5)CC4)cc3OC)nc2N1C(C)C` (stereo not drawn) [Example 28] are 160 nM and 18 nM.
For the compound `CCC1C(=O)N(C)c2cnc(Nc3ccc(C(=O)NC4CCC(N5CCCCC5)CC4)cc3OC)nc2N1C(C)C` (stereo not drawn) [Example 129], the IC50 in the assay with H460-VINC turned out to be 646 nM; in the assay with HeLaS3 cells it was 35 nM.
Consider `COc1cc(C(=O)NC2CCC(N3CCOCC3)CC2)ccc1Nc1ncc2c(n1)N(CCC(C)C)C(C)C(=O)N2C` (stereo not drawn) [Example 9], for which the IC50 in the assay with H460-VINC stood at 207 nM; in the assay with HeLaS3 cells it was 57 nM.
On to `CC[C@@H]1C(=O)N(C)c2cnc(Nc3ccc(C(=O)NCC(C)(C)CN(C)C)cc3OC)nc2N1c1ccccc1` [Example 89], for which the values for the IC50 in the assay on H460-VINC and in the assay on HeLaS3 cells were 245 nM and 47 nM, respectively.
With `CCC1C(=O)N(C)c2cnc(Nc3ccc(C(=O)NC4CCN(CC)CC4)cc3OC)nc2N1C1CCCC1` (stereo not drawn) [Example 22], the IC50 in the assay on H460-VINC is 347 nM; with HeLaS3 cells it was 8 nM.
On the same counts, the results for `CCN1CCC(NC(=O)c2ccc(Nc3ncc4c(n3)N(C3CCCC3)C(C)C(=O)N4C)c(OC)c2)CC1` (stereo not drawn) [Example 17] are 730 nM and 24 nM.
Regarding `COc1cc(C(=O)NCCCN2CCCCC2)ccc1Nc1ncc2c(n1)N(C1CCCC1)C(C)C(=O)N2C` (stereo not drawn) [Example 64], the IC50 in the assay with H460-VINC worked out at 894 nM; with HeLaS3 cells, 64 nM.
On the same counts, the results for `COc1cc(C(=O)NC(C)(C)CN2CCCC2)ccc1Nc1ncc2c(n1)N(CC(C)(C)C)C(C)C(=O)N2C` (stereo not drawn) [Example 50] are 436 nM and 81 nM.
Take `COc1cc(C(=O)NC2CC(C)(C)N(C)C(C)(C)C2)ccc1Nc1ncc2c(n1)N(C1CCCCC1)C(C)C(=O)N2C` (stereo not drawn) [Example 117]: the IC50 was 370 nM in the assay on H460-VINC and 10 nM with HeLaS3 cells.
Turning to `CC[C@@H]1C(=O)N(C)c2cnc(Nc3ccc(C(=O)NCCN4CCOCC4)cc3OC)nc2N1C(C)C` [Example 71], the IC50 amounted to 227 nM in the assay on H460-VINC and 35 nM with HeLaS3 cells.
On to `COc1cc(C(=O)NC2CC(C)(C)N(C)C(C)(C)C2)ccc1Nc1ncc2c(n1)N(C(C)C)[C@H](C)C(=O)N2C` [Example 32], for which the IC50 was at least 3000 nM in the assay with H460-VINC and 49 nM in the assay on HeLaS3 cells.
Regarding `COc1cc(C(=O)NC2CC3CCC(C2)N3C)ccc1Nc1ncc2c(n1)N(CCC(C)C)C(C)(C)C(=O)N2C` (stereo not drawn) [Example 43], the figures for the IC50 with H460-VINC and in the assay on HeLaS3 cells were at least 3000 nM and 94 nM, respectively.
On to `COc1cc(C(=O)NCCCN(C)C)ccc1Nc1ncc2c(n1)N(C1CCCC1)[C@H](C)C(=O)N2C` [Example 75], for which the figures for the IC50 in the assay with H460-VINC and in the assay on HeLaS3 cells were 557 nM and 46 nM, respectively.
In the case of `CCC1C(=O)N(C)c2cnc(Nc3ccc(C(=O)NC(C)(C)CN4CCCC4)cc3OC)nc2N1C1CCCC1` (stereo not drawn) [Example 55], the IC50 with H460-VINC turned out to be 86 nM; with HeLaS3 cells it was 13 nM.
With `CCC1C(=O)N(C)c2cnc(Nc3ccc(C(=O)NC4CCC(N5CCCCC5)CC4)cc3OC)nc2N1C1CCCC1` (stereo not drawn) [Example 128], the IC50 with H460-VINC was determined as 282 nM; with HeLaS3 cells it was 15 nM.
On to `CC[C@@H]1C(=O)N(C)c2cnc(Nc3ccc(C(=O)NC4CCN(C)CC4)cc3OC)nc2N1c1ccccc1` [Example 88], for which the results for the IC50 in the assay on H460-VINC and in the assay with HeLaS3 cells were 1020 nM and 20 nM, respectively.
On the same counts, the results for `Cc1cc(C(=O)NC2CCN(C)CC2)ccc1Nc1ncc2c(n1)N(C1CCCC1)[C@H](C)C(=O)N2C` [Example 83] are 263 nM and 69 nM.
On the same counts, the results for `CCN1CC[C@@H](NC(=O)c2ccc(Nc3ncc4c(n3)N(CCC(C)C)[C@H](C)C(=O)N4C)c(OC)c2)C1` [Example 37] are 762 nM and 72 nM.
For `CCC1C(=O)N(C)c2cnc(Nc3ccc(C(=O)NC4CCC(N5CCCC5)CC4)cc3OC)nc2N1C1CCCC1` (stereo not drawn) [Example 138], the values for the half-maximal inhibitory concentration (IC50) with H460-VINC and with HeLaS3 cells were 1140 nM and 43 nM, respectively.
On the same counts, the results for `COc1cc(C(=O)NC2CC3CCC(C2)N3C)ccc1Nc1ncc2c(n1)N(C1CCCCC1)[C@H](C)C(=O)N2C` (stereo partly drawn) [Example 91] are 1780 nM and 41 nM.
Turning to `CC[C@@H]1C(=O)N(C)c2cnc(Nc3ccc(C(=O)N[C@H]4CC[C@H](N5CCOCC5)CC4)cc3OC)nc2N1C1CCCCC1` [Example 97], the IC50 in the assay on H460-VINC came out at 66 nM; with HeLaS3 cells, 32 nM.
On the same counts, the results for `COc1cc(C(=O)NC2CCN(C)CC2)ccc1Nc1ncc2c(n1)N(c1ccccc1)[C@H](C)C(=O)N2C` [Example 41] are at least 3000 nM and 83 nM.
`C[C@@H]1C(=O)N(C)c2cnc(Nc3ccc(C(=O)NC4CCN(C)CC4)cc3)nc2N1C1CCCCC1` [Example 85]: the values for the IC50 in the assay on H460-VINC and in the assay with HeLaS3 cells were 754 nM and 25 nM, respectively.
Turning to `CC[C@@H]1C(=O)N(C)c2cnc(Nc3ccc(C(=O)NC4CCN(C)CC4)cc3OC)nc2N1C1CCCCC1` [Example 96], the results for the IC50 in the assay with H460-VINC and with HeLaS3 cells were 577 nM and 11 nM, respectively.
On the same counts, the results for `CCC1C(=O)N(C)c2cnc(Nc3ccc(C(=O)NCC(C)(C)CN(C)C)cc3OC)nc2N1C(C)C` (stereo not drawn) [Example 57] are 67 nM and 38 nM.
Consider `COc1cc(C(=O)N[C@H]2CC[C@H](N3CCCC3)CC2)ccc1Nc1ncc2c(n1)N(C1CCCCC1)[C@H](C)C(=O)N2C` [Example 98], for which the values for the IC50 with H460-VINC and with HeLaS3 cells were 1320 nM and 77 nM, respectively.
As for `COc1cc(C(=O)NCC(C)(C)CN(C)C)ccc1Nc1ncc2c(n1)N(C1CCCCC1)[C@H](C)C(=O)N2C` [Example 86], the IC50 was determined as 24 nM in the assay on H460-VINC and 38 nM in the assay with HeLaS3 cells.
For the compound `COc1cc(C(=O)NC2CCN(C)CC2)ccc1Nc1ncc2c(n1)N(CCC(C)C)C(C)(C)C(=O)N2C` [Example 162], the half-inhibitory concentration (IC50) in the assay with H460-VINC stood at 903 nM; in the assay on HeLaS3 cells it was 71 nM.
`COc1cc(C(=O)NC2CC(C)(C)N(C)C(C)(C)C2)ccc1Nc1ncc2c(n1)N(CCC(C)C)C(C)C(=O)N2C` (stereo not drawn) [Example 1]: the IC50 is 604 nM in the assay on H460-VINC and 46 nM with HeLaS3 cells.
On the same counts, the results for `CCN1CCC(NC(=O)c2ccc(Nc3ncc4c(n3)N(C3CCCCC3)C(C)C(=O)N4C)c(OC)c2)CC1` (stereo not drawn) [Example 119] are 438 nM and 8 nM.
`COc1cc(C(=O)NCC(C)(C)CN(C)C)ccc1Nc1ncc2c(n1)N(C1CCCC1)C(C)C(=O)N2C` (stereo not drawn) [Example 60]: the IC50 with H460-VINC is 189 nM; in the assay on HeLaS3 cells, 41 nM.
On the same counts, the results for `COc1cc(C(=O)NC2CCC(N(C)C)CC2)ccc1Nc1ncc2c(n1)N(C1CCCCC1)C(C)C(=O)N2C` (stereo not drawn) [Example 118] are 279 nM and 10 nM.
On the same counts, the results for `CC1C(=O)N(C)c2cnc(Nc3ccc(C(=O)NC4CC5CCC(C4)N5C)cc3)nc2N1C1CCCC1` (stereo not drawn) [Example 68] are 1240 nM and 92 nM.
`COc1cc(C(=O)NCC(C)(C)CN(C)C)ccc1Nc1ncc2c(n1)N(CC(C)(C)C)C(C)C(=O)N2C` (stereo not drawn) [Example 52]: the IC50 in the assay with H460-VINC turned out to be 153 nM; in the assay with HeLaS3 cells, 79 nM.
For `CC1C(=O)N(C)c2cnc(Nc3ccc(C(=O)NC4CCC(N(C)C)CC4)cc3)nc2N1C1CCCC1` (stereo not drawn) [Example 14], the IC50 was at least 3000 nM in the assay with H460-VINC and 55 nM in the assay on HeLaS3 cells.
On to `COc1cc(C(=O)NCC(C)(C)CN(C)C)ccc1Nc1ncc2c(n1)N(C1CCCC1)C(C1CC1)C(=O)N2C` (stereo not drawn) [Example 51], for which the IC50 in the assay with H460-VINC stood at 150 nM; with HeLaS3 cells, 80 nM.
On the same counts, the results for `CC(C)N1CCC(NC(=O)c2ccc(Nc3ncc4c(n3)N(CC(C)(C)C)C(C)C(=O)N4C)cc2)CC1` (stereo not drawn) [Example 12] are 1070 nM and 99 nM.
`COc1cc(C(=O)NC2CCC(N3CCOCC3)CC2)ccc1Nc1ncc2c(n1)N(C1CCCC1)C(C)C(=O)N2C` (stereo not drawn) [Example 24]: the figures for the IC50 in the assay on H460-VINC and with HeLaS3 cells were 277 nM and 17 nM, respectively.
On to `CCC1C(=O)N(C)c2cnc(Nc3ccc(C(=O)NC4CC5CCC(C4)N5C)cc3OC)nc2N1C1CCCC1` (stereo not drawn) [Example 45], for which the results for the IC50 with H460-VINC and with HeLaS3 cells were 792 nM and 22 nM, respectively.
For `CCC1C(=O)N(C)c2cnc(Nc3ccc(C(=O)NC4CCC(N5CCOCC5)CC4)cc3OC)nc2N1C1CCCC1` (stereo not drawn) [Example 133], the IC50 was 75 nM in the assay on H460-VINC and 11 nM with HeLaS3 cells.

Broadly, the IC50 is the concentration needed to halve the response being measured.
